Common to all, as to type: functional
The test system of assay [1] is Klebsiella pneumoniae. Put plainly: Antimicrobial activity against carbapenemases KPC-producing Klebsiella pneumoniae VA-361 infected in sc dosed CD-1 mouse septicemia infection model at 4:1 compound to NXL104 beta-lactamase inhibitor ratio by acute lethal septicemia analysis. Particulars: VA-361, sc.
Assay [2] deals with Klebsiella pneumoniae. Description: Antimicrobial activity against carbapenemases KPC-producing Klebsiella pneumoniae VA-361 infected in CD-1 mouse thigh infection model assessed as change in log10 CFU reduction per thigh treated 1.5 hr post infection at >=128:32 mg/kg, sc compound to NXL104 beta-lactamase inhibitor ratio after 24 hrs by acute lethal septicemia analysis (reference value: 8.93 log10CFU/thigh).

Assay [3] has as its system Klebsiella pneumoniae. Description: Antimicrobial activity against carbapenemases KPC-producing Klebsiella pneumoniae VA-406 infected in sc dosed CD-1 mouse in presence of 2 ug/ml NXL104 beta-lactamase inhibitor.
For assay [4], the system named is Klebsiella pneumoniae. Put plainly: Antimicrobial activity against Klebsiella pneumoniae ATCC 13883 infected in sc dosed CD-1 mouse septicemia infection model at 4:1 compound to NXL104 beta-lactamase inhibitor ratio by acute lethal septicemia analysis. Particulars: ATCC 13883, sc.
Assay [5] has as its system Klebsiella pneumoniae. Description: Antimicrobial activity against carbapenemases KPC-producing Klebsiella pneumoniae VA-406 infected in CD-1 mouse thigh infection model assessed as change in log10 CFU reduction per thigh treated 1.5 hr post infection at >=256:64 mg/kg, sc compound to NXL104 beta-lactamase inhibitor ratio after 24 hrs by acute lethal septicemia analysis (reference value: 8.67 log10CFU/thigh).

Assay [6] relates to Klebsiella pneumoniae. Description: Antimicrobial activity against carbapenemases KPC-producing Klebsiella pneumoniae VA-361 infected in sc dosed CD-1 mouse in presence of 4 ug/ml cavulanate beta-lactamase inhibitor.
Assay [7] relates to Klebsiella pneumoniae. Put plainly: Antimicrobial activity against carbapenemases KPC-producing Klebsiella pneumoniae VA-361 infected in sc dosed CD-1 mouse in presence of 2 ug/ml NXL104 beta-lactamase inhibitor.
In assay [8] the test system is Klebsiella pneumoniae. Description: Antimicrobial activity against carbapenemases KPC-producing Klebsiella pneumoniae VA-406 infected in sc dosed CD-1 mouse septicemia infection model at 2:1 compound to NXL104 beta-lactamase inhibitor ratio by acute lethal septicemia analysis. The following applies: VA-406, sc.
In assay [9] the test system is Klebsiella pneumoniae. Description: Antimicrobial activity against carbapenemases KPC-producing Klebsiella pneumoniae VA-406 infected in sc dosed CD-1 mouse in presence of 1 ug/ml NXL104 beta-lactamase inhibitor.
In assay [10] the test system is Klebsiella pneumoniae. Put plainly: Antimicrobial activity against carbapenemases KPC-producing Klebsiella pneumoniae VA-406 infected in sc dosed CD-1 mouse septicemia infection model at 8:1 compound to NXL104 beta-lactamase inhibitor ratio by acute lethal septicemia analysis. Particulars: VA-406, sc.
Assay [11] deals with Klebsiella pneumoniae. Put plainly: Antimicrobial activity against carbapenemases KPC-producing Klebsiella pneumoniae VA-361 infected in sc dosed CD-1 mouse septicemia infection model at 8:1 compound to NXL104 beta-lactamase inhibitor ratio by acute lethal septicemia analysis. The following applies: VA-361, sc.

As a reminder, the ED50 is the dose that gives a 50% effect, or the effect in half of the subjects. By MIC is commonly meant the lowest concentration that inhibits growth of the organism.

Molecules are shown by their SMILES.

Take `CC(C)(O/N=C(\C(=O)N[C@@H]1C(=O)N2C(C(=O)[O-])=C(C[n+]3ccccc3)CS[C@H]12)c1csc(N)n1)C(=O)O` [CEFTAZIDIME]: the 50% effective dose (ED50) in the assay on Klebsiella pneumoniae [1] was found to be 15.1 mg/kg; with Klebsiella pneumoniae [4], 1.1 mg/kg; with Klebsiella pneumoniae [8], 3.5 mg/kg; in the assay on Klebsiella pneumoniae [10], 7.2 mg/kg; with Klebsiella pneumoniae [11], 16.9 mg/kg. The log10cfu in the assay with Klebsiella pneumoniae [2] is given as 1.88; in the assay on Klebsiella pneumoniae [5] it was -1.02. The MIC in the assay on Klebsiella pneumoniae [3] was 2 µg/mL; in the assay on Klebsiella pneumoniae [6] it was 128 µg/mL; in the assay on Klebsiella pneumoniae [7], 4 µg/mL; in the assay on Klebsiella pneumoniae [9], 8 µg/mL.

The values are drawn from ChEMBL document CHEMBL1687830, “Evaluation of ceftazidime and NXL104 in two murine models of infection due to KPC-producing Klebsiella pneumoniae” (2011).
